Test results: article PMC7251097, “Aspartate/asparagine-β-hydroxylase: a high-throughput mass spectrometric assay for discovery of small molecule inhibitors” (Scientific Reports, 2020)
Structures can show the parent of a compound that is named as a salt. Where two headings read alike, the source gives them in different places.

Target: T1, His6-AspH315–758 (human aspartate/asparagine-β-hydroxylase, AspH) (Homo sapiens, UniProt Q12797)
T1 construct: N-Terminally His6-tagged human AspH315–758 (His6-AspH315–758) was produced in E. coli BL21 (DE3) cells; made in house; host or cells: E. coli BL21 (DE3), pET-28a(+) vector
T1 sequence (Q12797 315-758): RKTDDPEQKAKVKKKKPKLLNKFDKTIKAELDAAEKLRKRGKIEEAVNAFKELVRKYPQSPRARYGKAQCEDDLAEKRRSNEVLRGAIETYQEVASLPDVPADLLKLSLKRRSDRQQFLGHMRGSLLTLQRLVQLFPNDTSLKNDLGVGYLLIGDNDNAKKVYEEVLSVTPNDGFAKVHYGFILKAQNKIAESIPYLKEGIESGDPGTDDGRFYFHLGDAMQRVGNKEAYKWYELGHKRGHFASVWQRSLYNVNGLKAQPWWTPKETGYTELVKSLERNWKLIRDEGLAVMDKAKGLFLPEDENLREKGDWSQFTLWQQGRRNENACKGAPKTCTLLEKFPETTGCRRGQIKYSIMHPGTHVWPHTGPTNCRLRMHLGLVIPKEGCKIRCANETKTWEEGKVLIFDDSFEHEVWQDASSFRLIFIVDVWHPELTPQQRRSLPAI
Test: SPE-MS AspH inhibition assay (LOPAC screen at fixed 20 μM and IC50 dose-response), hydroxylation of cyclic peptide hFX-CP101–119
Format: biochemical
Conditions: for Plate 5 (% inhibition) / Plate 5 (% conversion): plate 5 (Pfitzer), test compounds at fixed 20 μM; for Plate 5 (% conversion): mean conversion DMSO 32.88

[1] = LOPAC compound at 20uM, conversion of substrate peptide
[2] = LOPAC compound at fixed 20 uM, plate 1, normalised to DMSO and 2,4-PDCA controls
[3] = LOPAC compound at fixed 20 uM, substrate conversion, plate 1
[4] = LOPAC Plate 4, compound at 20 uM, substrate conversion
[5] = LOPAC Plate 4, compound at 20 uM, read-out: % inhibition

## NC(=O)C(=O)O [Sodium Oxamate]
[1]
  Plate 3 (% conversion): 31.22%

## O=C1NC(=O)[C@@]2(CCOc3ccc(F)cc32)N1 [Sorbinil]
[2]
  Plate 1 (% inhibition): -13.94%
[3]
  Plate 1 (% conversion): 40.55%

## NCCCCNCCCN [Spermidine trihydrochloride]
[4]
  % conversion: 36.29%
[5]
  inhibition at 20 µM: 0.53%

## NCCCNCCCCNCCCN [Spermine tetrahydrochloride]
[4]
  % conversion: 39.42%
[5]
  inhibition at 20 µM: -8.64%

## O=C(CCCN1CCC2(CC1)C(=O)NCN2c1ccccc1)c1ccc(F)cc1 [Spiperone hydrochloride]
[4]
  % conversion: 26.03%
[5]
  inhibition at 20 µM: 30.6%

## CC(=O)S[C@@H]1CC2=CC(=O)CC[C@]2(C)[C@H]2CC[C@@]3(C)[C@@H](CC[C@@]34CCC(=O)O4)[C@H]12 [Spironolactone]
[4]
  % conversion: 41.84%
[5]
  inhibition at 20 µM: -15.7%

## O=[N+]([O-])c1ccc2c(c1)S(=O)(=O)C=C2 [Stattic]
  % conversion: 34.71%
20 µM
  % inhibition: 5.15%

## C=C1C[C@@]23CC[C@H]4[C@@](C)(CCC[C@@]4(C)C(=O)O)[C@@H]2CC[C@]1(O)C3 [Steviol]
[4]
  % conversion: 37.50%
[5]
  inhibition at 20 µM: -3.02%

## C[N+](C)(C)CCOC(=O)CCC(=O)OCC[N+](C)(C)C [Succinylcholine chloride]
  % conversion: 39.43%
  inhibition at 20 µM: -8.69%

## Nc1ccc(S(=O)(=O)Nc2ccnn2-c2ccccc2)cc1 [Sulfaphenazole]
[4]
  % conversion: 26.59%

## CC1=C(CC(=O)O)c2cc(F)ccc2/C1=C\c1ccc(S(C)(=O)=O)cc1 [Sulindac sulfone]
[4]
  % conversion: 33.98%

## CC1=C(CC(=O)O)c2cc(F)ccc2/C1=C\c1ccc([S+](C)[O-])cc1 (stereo not drawn) [Sulindac]
[4]
  % conversion: 35.56%
[5]
  inhibition at 20 µM: 2.67%

## CCN(CC)CCNC(=O)c1c(C)[nH]c(/C=C2\C(=O)Nc3ccc(F)cc32)c1C [Sunitinib malate]
LOPAC compound at 20uM, plate 2, conversion of substrate peptide
  Plate 2 (% conversion): 11.67%
LOPAC compound at 20uM, plate 2, normalised to DMSO and 2,4-PDCA controls, read-out: Plate 2 (% inhibition)
  inhibition at 20 µM: 72.5%

## CCN(CC)CCNC(=O)c1c(C)[nH]c(/C=C2\C(=O)Nc3ccc(F)cc32)c1C [Sunitinib]
  Plate 5 (% inhibition): 67.34%
  Plate 5 (% conversion): 13.39%

## CC(=O)/C=C1\C(=O)N(C)c2ccccc21 [Supercinnamaldehyde]
[2]
  Plate 1 (% inhibition): -3.46%
[3]
  Plate 1 (% conversion): 37.03%

## Cc1ccc(C(=O)Nc2ccc(S(=O)(=O)[O-])c3cc(S(=O)(=O)[O-])cc(S(=O)(=O)[O-])c23)cc1NC(=O)c1cccc(NC(=O)Nc2cccc(C(=O)Nc3cc(C(=O)Nc4ccc(S(=O)(=O)[O-])c5cc(S(=O)(=O)[O-])cc(S(=O)(=O)[O-])c45)ccc3C)c2)c1.[Na+].[Na+].[Na+].[Na+].[Na+].[Na+] [Suramin sodium salt, reference compound]
AspH activity, fixed compound concentration 20 μM, initial LOPAC screen, 0.5%v/v DMSO
  Inhibition at 20 µM [%]: 103.3%
[4]
  % conversion: 1.22%

## O=C(Nc1ccncc1)c1cc([N+](=O)[O-])ccc1Cl [T0070907]
[1]
  Plate 3 (% conversion): 31.53%

## Brc1c(Br)c(Br)c2[nH]cnc2c1Br [TBBz]
  Plate 1 (% conversion): 32.96%
  Plate 1 (% inhibition): 8.67%

## O=C(O)CCN(O)C(=O)CCCCCCCCC1CC1 [TC-E 5002, reference compound]
50 nM His6-AspH315–758, 1.0 μM hFX-CP101–119, 3 μM 2OG, 2 μM Fe(II), 50 mM HEPES pH 7.5, 20 °C, mean ± SD, n = 2 (2,4-PDCA n = 10), read-out: IC50
  IC50: 6.66 ± 0.69 µM

## Clc1cnc(Oc2ccc(Oc3ncc(Cl)cc3Cl)cc2)c(Cl)c1 [TCPOBOP]
  % conversion: 30.30%

## CCN1/C(=C/C(C)=O)Sc2ccc(OC)cc21 [TG003]
[1]
  Plate 3 (% conversion): 40.97%

## Cl.O=c1[nH]oc2c1CCNC2 [THIP hydrochloride]
  % conversion: 36.67%
20 µM
  % inhibition: -0.58%

## CCN(CC)CCCCCCCCOC(=O)c1cc(OC)c(OC)c(OC)c1.Cl [TMB-8 hydrochloride]
[2]
  Plate 1 (% inhibition): -14.63%
[3]
  Plate 1 (% conversion): 40.78%

## CCCCCCC(=O)OC1CC(C)(C)NC(C)(C)C1.Cl [TMPH hydrochloride]
[1]
  Plate 3 (% conversion): 40.82%

## CP(=O)(O)C1=CCNCC1 [TPMPA]
  % conversion: 27.88%

## C/C(=C\c1ccc(C(=O)O)cc1)c1ccc2c(c1)C(C)(C)CCC2(C)C [TTNPB]
[4]
  % conversion: 26.33%

## CC/C(=C(\c1ccccc1)c1ccc(OCCN(C)C)cc1)c1ccccc1 [Tamoxifen citrate]
[4]
  % conversion: 11.73%
[5]
  inhibition at 20 µM: 72.5%

## NCCS(=O)(=O)O [Taurine]
[4]
  % conversion: 39.69%
[5]
  inhibition at 20 µM: -9.43%

## CCOC(=O)c1ccc(C#Cc2ccc3c(c2)C(C)(C)CCS3)nc1 [Tazarotene]
[4]
  % conversion: 39.09%

## O=c1[nH]c(=O)n(C2CCCO2)cc1F (stereo not drawn) [Tegafur]
[4]
  % conversion: 31.54%

## Cc1scc2c1N(C(=O)CN1CCN(C)CC1)c1ccccc1NC2=O [Telenzepine dihydrochloride]
[4]
  % conversion: 38.43%
[5]
  inhibition at 20 µM: -5.75%

## CO[C@H]1C[C@@H]2CC[C@@H](C)[C@@](O)(O2)C(=O)C(=O)N2CCCC[C@H]2C(=O)O[C@H]([C@H](C)C[C@@H]2CC[C@@H](OC(=O)C(C)(CO)CO)[C@H](OC)C2)CC(=O)[C@H](C)/C=C(\C)[C@@H](O)[C@@H](OC)C(=O)[C@H](C)C[C@H](C)/C=C/C=C/C=C/1C [Temsirolimus]
  Plate 5 (% inhibition): 52.39%
  Plate 5 (% conversion): 18.48%

## CC(C)(C)NCC(O)c1cc(O)cc(O)c1.CC(C)(C)NCC(O)c1cc(O)cc(O)c1.O=S(=O)(O)O (stereo not drawn) [Terbutaline hemisulfate]
LOPAC Plate 4, compound at 20 uM
  % inhibition: 5.48%
[4]
  % conversion: 34.60%

## CC(C)(C)c1ccc(C(O)CCCN2CCC(C(O)(c3ccccc3)c3ccccc3)CC2)cc1 (stereo not drawn) [Terfenadine]
[4]
  % conversion: 45.15%
[5]
  inhibition at 20 µM: -25.4%

## COc1cc2c(cc1OC)C1CC(=O)C(CC(C)C)CN1CC2 (stereo not drawn) [Tetrabenazine]
[4]
  % conversion: 27.36%

## CCCCNc1ccc(C(=O)OCCN(C)C)cc1 [Tetracaine hydrochloride]
[4]
  % conversion: 40.45%
[5]
  inhibition at 20 µM: -11.7%

## CCCCCCCCCCCCCCSCC(=O)O [Tetradecylthioacetic acid]
[4]
  % conversion: 26.50%
[5]
  inhibition at 20 µM: 29.2%

## CC[N+](CC)(CC)CC [Tetraethylammonium chloride]
  % conversion: 26.96%

## CCN(CC)C(=S)SSC(=S)N(CC)CC [Tetraethylthiuram disulfide]
[4]
  % conversion: 22.31%

## c1ccc2c(c1)CCCC2C1=NCCN1 (stereo not drawn) [Tetrahydrozoline hydrochloride]
[4]
  % conversion: 39.98%
[5]
  inhibition at 20 µM: -10.3%

## CC(C)NP(=O)(NC(C)C)OP(=O)(NC(C)C)NC(C)C [Tetraisopropyl pyrophosphoramide]
  % conversion: 27.56%

## c1ccc(C2CN3CCSC3=N2)cc1 (stereo not drawn) [Tetramisole hydrochloride]
[4]
  % conversion: 38.57%

## C/C=C(/C)C(=O)O[C@H]1C(C)=C2[C@H]([C@@H]1OC(=O)CCCCCCC)[C@@](C)(OC(C)=O)C[C@H](OC(=O)CCC)[C@@]1(O)[C@H]2OC(=O)[C@@]1(C)O [Thapsigargin]
  % conversion: 31.20%

## Cn1cnc2c1c(=O)[nH]c(=O)n2C [Theobromine]
[4]
  % conversion: 26.15%

## Cn1c(=O)c2[nH]cnc2n(C)c1=O [Theophylline]
  % conversion: 39.26%
  inhibition at 20 µM: -8.17%

## NC(=S)c1ccc[n+]([C@@H]2O[C@@H](COP(=O)([O-])OP(=O)(O)OC[C@H]3O[C@@H](n4cnc5c(N)ncnc54)C(OP(=O)([O-])O)[C@H]3O)C(O)C2O)c1.[Na+] (stereo partly drawn) [Thio-NADP sodium]
[4]
  % conversion: 24.90%

## S=C(NC1CCCCC1)N1CCC(c2cnc[nH]2)CC1 [Thioperamide maleate]
  % conversion: 37.27%
[5]
  inhibition at 20 µM: -2.35%

## CSc1ccc2c(c1)N(CCC1CCCCN1C)c1ccccc1S2 (stereo not drawn) [Thioridazine hydrochloride]
[4]
  % conversion: 43.98%
